# Laboratory results taken from publication PMC10535741, “Styrylpyridinium Derivatives for Fluorescent Cell Imaging” (Pharmaceuticals, 2023).
# Read-outs that look alike come from different tables or passages of the source.
# Experiments:
# [1] = Basal cytotoxicity, neutral red uptake (NRU) assay, with LD50 estimated from IC50; assay type: cell-based; conditions: mouse
# Experimental: The evaluation of the in vitro cytotoxicity (IC50, half maximal inhibitory concentration) of the abovementioned compounds and their structural derivatives was assessed using the standard colorimetric 3-(4,5-dimethylthiazol-2-yl)-2,5-diphenyltetrazolium bromide (MTT) assay on two monolayer tumour cell lines, namely HT-1080 (human connective tissue fibrosarcoma) and MH-22A (mouse hepatocarcinoma). Additionally, the impact of the compound on non-cancerous “normal” cells—mouse fibroblasts (NIH3T3)—was estimated in order to measure the basal toxicity (LD50, median lethal dose). The obtained results were used for investigation of the structure–activity relationships and exploration of the effect of substituents on cellular response and toxicity. The estimated LD50 gives information regarding the compound properties and could potentially be used to select promising compounds by providing a starting dose for in vivo experiments.
# To assess basal cytotoxicity, the neutral red uptake (NRU) assay was conducted following a modified version of the standard protocol of Stokes’ [71], as validated by the NICEATM-ECVAM study. The NRU cytotoxicity assay determines the ability of viable cells to incorporate and bind a supravital dye, neutral red (NR).
# NIH3T3 cells (9000 cells/well) were cultured in 96-well plates in DMEM medium supplemented with 5% FBS for 24 h. Subsequently, the cells were exposed to the test compounds over a range of seven concentrations (1000 µg/mL, 316 µg/mL, 100 µg/mL, 31 µg/mL, 10 µg/mL, 3.0 µg/mL, and 1.0 µg/mL) for 24 h. Untreated cells were used as a control. After the incubation period, the medium was removed from all plates and a solution of NR was added (250 µL, 0.05 mg/mL NR in DMEM 24 h pre-incubated at 37 °C and then filtered before use through a 0.22 µm syringe filter). The plates were incubated for 3 h, followed by three washes with phosphate-buffered saline (PBS). The cells were then treated with a mixture of ethanol (50%) and water (49%) supplemented with 1% acetic acid. The absorbance of NR was measured using a spectrophotometer multiplate reader (Infinite M1000; Tecan Austria GmbH, Salzburg, Austria) at 540 nm. The optical density (OD) was then calculated using the following formula: ODtreated cells×100/ODcontrol cells.
# The IC50 values were calculated using the program Graph Pad Prism® 3.0.
# In vitro test results were employed to estimate the starting dose for acute oral systemic toxicity tests in rodents (LD50). The LD50 value was calculated using the in vitro IC50 value and a following formula: logLD50(mM/kg)=0.439×logIC50(mM)+0.621
# The value was then converted to mg/kg and the compounds classified into four toxicity categories. Category 1 (highly toxic): LD50 ≤ 5 mg/kg; Category 2 (moderately toxic): 5 < LD50 ≤ 50 mg/kg; Category 3 (slightly toxic): 50 < LD50 ≤ 300 mg/kg; Category 4 (practically non-toxic): 300 < LD50 ≤ 2000 mg/kg.
# [2] = UV/Vis absorption spectra in DMSO; assay type: physicochemical; conditions: 0.33 mM for 6a,b,d,f,g, 5 mM for 6c,e
# Experimental: The resonance structures of compounds 6d,e (Figure 2a) show a possibly intramolecular charge transfer between the julolidine moiety and the pyridinium unit. The normalised fluorescence spectra of the tested compounds 6a–e and 7a,b in DMSO solution (Figure 2c) and the fluorescence spectra of compound 6e in various media (Figure 2d) were measured using a spectrophotometer multiplate reader (Infinite M1000). The UV/Vis spectra in DMSO solution of compounds 6a–g (Figure 2b) were reordered with a UV/Vis spectrophotometer, and the fluorescence spectra of compound 6e in EtOH–glycerol mixtures (Figure 2e) were collected with a Spectrofluorometer FS5.
# The spectral properties (absorption and fluorescence maximum in DMSO solution) of compounds 6a–e and 7a,b, UV spectral data (extinction coefficient (log ε) and absorption maximum), values of Stokes’ shift, and fluorescence quantum yield are presented in Table 3.
# [3] = estimated from in vitro NRU IC50 (24 h), read-out: Basal cytotoxicity (NIH3T3) LD50 mM/kg
# [4] = estimated from in vitro NRU IC50 (24 h) by log LD50 = 0.439 x log IC50 + 0.621, read-out: Basal Cytotoxicity (NIH3T3) LD50
Structure (SMILES),"LD50 at 24 h ([1]; NIH3T3 cells, estimated from in vitro NRU IC50 (24 h) by log LD50 = 0.439 x log IC50 + 0.621, read-out: Basal Cytotoxicity (NIH3T3) LD50) [mg/kg]","LD50 at 24 h [1, 3] [µmol/kg]","abs. max., λ, nm [2] [nm]",log ε [2],"LD50 at 24 h [1, 4] [mg/kg]"
"CCCCCCCCCCCC[n+]1ccc(C=Cc2cc(OC)c(OC)c(OC)c2)cc1.[Br-] [Compound 6a, 4-(3,4,5-trimethoxystyryl)-N-dodecylpyridinium bromide]",249 ± 3,500,384,5.46,–
CCCCCCCCCCCCCCCC[n+]1ccc(C=Cc2cc(OC)c(OC)c(OC)c2)cc1.[Br-] [Compound 6b],–,–,385,5.23,–
"CCCCCCCCCCCCCCCC[n+]1ccc(C=CC=Cc2ccc(OC)cc2)cc1.[Br-] [Compound 6c, 1-hexadecyl-4-(4-(4-methoxyphenyl)buta-1,3-dien-1-yl)pyridin-1-ium bromide]",–,160,408,4.26,85 ± 7
"CCCCCCCCCCCC[n+]1ccc(C=Cc2cc3c4c(c2)CCCN4CCC3)cc1.[Br-] [Compound 6d, 1-dodecyl-4-(2-(2,3,6,7-tetrahydro-1H,5H-pyrido[3,2,1-ij]quinolin-9-yl)vinyl)pyridin-1-ium bromide]",–,300,–,–,169 ± 18
"CCCCCCCCCCCCCCCC[n+]1ccc(C=CC=Cc2cc3c4c(c2)CCCN4CCC3)cc1.[Br-] [Compound 6e, 1-hexadecyl-4-(4-(2,3,6,7-tetrahydro-1H,5H-pyrido[3,2,1-ij]quinolin-9-yl)buta-1,3-dien-1-yl)pyridin-1-ium bromide]",–,800,520,4.02,477 ± 11
C(=C\c1cc2c3c(c1)CCCN3CCC2)/c1cc[n+](CCC[n+]2ccc(/C=C/c3cc4c5c(c3)CCCN5CCC4)cc2)cc1 [Compound 7a],–,–,–,–,1100 ± 20
"C(C=Cc1cc2c3c(c1)CCCN3CCC2)=Cc1cc[n+](CCC[n+]2ccc(C=CC=Cc3cc4c5c(c3)CCCN5CCC4)cc2)cc1.[Br-].[Br-] [Compound 7b, 1,1′-(propane-1,3-diyl)bis(4-(4-(2,3,6,7-tetrahydro-1H,5H-pyrido[3,2,1-ij]quinolin-9-yl)buta-1,3-dien-1-yl)pyridin-1-ium) dibromide]",–,–,–,–,857 ± 13
